Ends that are not written are not given here. Cy5 = Cy5 fluorescent dye
Assays:
KYSE-30 cells [1] = assay: Flow cytometry of cells incubated with Cy5 conjugated peptides; format: cell-based, human; details: Cy5 conjugated peptide 50 μM, 15 min, room temperature, 10,000 gated cells
Experimental: When the cells in the 6 cm dish were 80–90% grown, they were harvested with Accutase (Sigma-Aldrich, MO, USA) and incubated with Cy5 conjugated peptides at a concentration of 50 μM for 15 min at room temperature, protected from light. After incubation, the cells were washed 3 times with ice-cold PBS and resuspended in 200 µL of PBS. Flow cytometry was performed on a CytoFLEX LX flow cytometer (Beckman Coulter, IN, USA) and eventually, 10,000 gated cells were collected for analysis. The results were finally analyzed by flow cytometry using Flow Jo software (v7.6, BD Biosciences, OR, USA).

KYSE-30 cells [2] = assay: Immunofluorescence staining (confocal) of cells with Cy5 conjugated peptides; format: cell-based, human; details: IGF2BP2-positive KYSE-30 cells, fixed and permeabilised, Cy5 conjugated peptide 80 μM overnight at 4 °C
Experimental: Approximately 5 × 10^4 cells were seeded onto fibronectin-coated coverslips in 24-well plates and fixed with 4% paraformaldehyde until the cells reached about 50% confluence. After permeabilization with 0.5% Triton X-100 (Millipore, MA, USA) for 10 min, the cells were blocked with 5% BSA for 0.5 h and subsequently incubated with Cy5 conjugated peptides at a concentration of 80 μM overnight at 4 °C. The next day, 1 μg/mL of diaminophenyl indole (DAPI) was added to stain the nucleus after washing with phosphate-buffered saline (PBS). Thereafter, the coverslips were mounted with ProLong Gold anti-fade (Invitrogen P26930, CA, USA), and the visualizations were conducted using confocal laser-scanning microscopy (Zeiss LSM880, Oberkochen, Germany).

KYSE-30 xenografts = assay: Near-infrared fluorescence imaging and ex vivo biodistribution in KYSE-30 bearing xenograft models; design: species or system mice
Experimental: Human esophageal cancer cell lines EC-9706, EC-109, and TE-1 were acquired from the Institute of Basic Medical Science, Chinese Academy of Medical Sciences, whereas KYSE-30, KYSE-410, KYSE-450, and KYSE-520 were obtained from the DSMZ (Deutsche Sammlung von Mikroorganismen und Zellkulturen). All cells were maintained in an incubator containing a humid atmosphere of 5% CO2 at 37 °C. All cells were cultured in RPMI-1640 medium supplemented with 10% fetal bovine serum (FBS) and penicillin-streptomycin solution. Mice aged 4 weeks were purchased from Guangdong Medical Laboratory Animal Center (Guangdong, China). Subcutaneous tumor models were constructed by subcutaneously injection of about 1 × 10^7 cells with a 20% suspension of Matrigel (Corning, NY, USA). All animal experiments were performed under a protocol approved by the Animal Ethics Committee of The Fifth Affiliated Hospital of Sun Yat-sen University.
Mice bearing subcutaneous esophageal tumors were injected with an equivalent of 50 μg Cy5-peptide via a tail vein. After circulation, the mice were anesthetized with isoflurane, and fluorescence images were captured at different time points of 10 min, 1 h, 2 h, 4 h, and 6 h by an IVIS Spectrum (PerkinElmer, MA, USA) with an excitation wavelength of 640 nm and an emission wavelength of 670 nm. The region of interest (ROI) was manually sketched to calculate the intensity of the fluorescence as mean fluorescence intensity (MFI). In addition, the tumors and main organs (bladder, liver, heart, lungs, stomach, spleen, skin, kidneys, colon, muscles, bones, and blood) were dissected and imaged for biodistribution analysis.

[3] = biological target: recombinant IGF2BP2 protein (approximately 29 kDa) (human); assay: ELISA; phage ELISA; purified IGF2BP2 protein coated on a 96-well plate, phage clones after the third round of screening, OD at 450 nm
[4] = KYSE-30 xenograft mice, 50 μg Cy5-peptide via tail vein, ROI quantification, n = 3
[5] = ex vivo optical imaging of tumors and main organs 2 h postinjection, 50 μg i.v., n = 3

| Molecule | Peak shift in flow cytometric analysis (KYSE-30 cells [1]) | Binding / fluorescence in confocal immunocytochemistry (KYSE-30 cells [2]) | Binding to IGF2BP2-positive tumors (immunofluorescence of frozen tumor sections after imaging) (KYSE-30 xenografts; KYSE-30 tumor tissue resected after imaging) | TBRs over time (KYSE-30 xenografts; [4]) | Time at which mean fluorescence intensity (MFI) peaked (KYSE-30 xenografts; [4]) | Tumor accumulation in NIRF imaging in comparison to C12-Cy5 (KYSE-30 xenografts; KYSE-30 xenograft mice, 50 μg Cy5-peptide via tail vein, different time points postinjection, n = 3) | Uptake in kidney relative to other organs (KYSE-30 xenografts; biodistribution, KYSE-30 xenograft mice) | Clearance route from biodistribution (KYSE-30 xenografts; [5]) | Enrichment in KYSE-30 tumors relative to organs (biodistribution) (KYSE-30 xenografts; [5]) | OD value (450 nm) relative to the control (times that of the control) [3] |
| --- | --- | --- | --- | --- | --- | --- | --- | --- | --- | --- |
| P12-Cy5: P12 peptide conjugated to arginine-penetrating peptide (RRRRRRRR) at the C-terminus and Cy5 fluorescent group at the N-terminus (Cy5-LSMPWSPTTYASRRRRRRRR; also: linker between P12 and R8 not defined) | peak shift | strong binding in the cytoplasm | strong binding | gradually increasing over time | 2 h | significantly higher tumor accumulation | relatively higher in the kidney than in other organs, including the tumors | prominent renal clearance | high in all organs except the urinary organs | – |
| LSMPWSPTTYAS [P12 peptide (…) displayed on phage] | – | – | – | – | – | – | – | – | – | 10 |
